Source: the supplement of paper PMC11061612

How the values were obtained:
Test in all cases: combination Emax (second highest fraction inhibited in the dose matrix, 72 h); higher = more inhibition; extreme values may be limits of the assay
[1] = tested on: JHH-2 (Hepatocellular Carcinoma)
Summary of the method: (§1)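 Cell lines grown in DMEM/F12 or RPMI with 10% FBS were plated in 1536-well plates and held 24 hours at 37°C, 5% CO2 before 72 hours of exposure to two-drug dose matrices, with DMSO typically at 0.2%. CellTiter-Glo 2.0 luminescence gave viability, which was converted to inhibition. Vehicle wells were set to 0 and blank wells to 1. Combination Emax is the second-highest inhibition in the matrix, and Bliss excess is the observed combination effect minus the expected EA + EB − EA·EB, where EA and EB are the single-agent effects.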

[2] = tested on: NCI-H441 (Lung Adenocarcinoma)
Summary of the method: as §1

[3] = tested on: MDA-MB-436 (Breast Carcinoma)
Summary of the method: as §1

[4] = tested on: EB2 (Burkitt's Lymphoma)
Summary of the method: as §1

[5] = tested on: LU-165 (Small Cell Lung Carcinoma)
Summary of the method: as §1

[6] = tested on: CGTH-W-1 (Thyroid Gland Carcinoma)
Summary of the method: as §1

[7] = tested on: LS-411N (Colorectal Carcinoma)
Summary of the method: as §1

[8] = tested on: KYSE-140 (Esophageal Squamous Cell Carcinoma)
Summary of the method: as §1

[9] = tested on: A2780 (Ovarian Carcinoma)
Summary of the method: as §1

[10] = tested on: HCC1395 (Breast Carcinoma)
Summary of the method: as §1

[11] = tested on: RH-41 (Rhabdomyosarcoma)
Summary of the method: as §1

[12] = tested on: MHH-ES-1 (Ewing's Sarcoma)
Summary of the method: as §1

[13] = tested on: CESS (Acute Myeloid Leukemia)
Summary of the method: as §1

[14] = tested on: SK-HEP-1 (Hepatocellular Carcinoma)
Summary of the method: as §1

[15] = tested on: CA46 (Burkitt's Lymphoma)
Summary of the method: as §1

[16] = tested on: GCT (Other Solid Carcinomas)
Summary of the method: as §1

[17] = tested on: GA-10 (Burkitt's Lymphoma)
Summary of the method: as §1

[18] = tested on: SW620 (Colorectal Carcinoma)
Summary of the method: as §1

[19] = tested on: HCC70 (Breast Carcinoma)
Summary of the method: as §1

[20] = tested on: G-402 (Other Solid Carcinomas)
Summary of the method: as §1

Structure (SMILES)	combination Emax [1]	combination Emax [2]	combination Emax [3]	combination Emax [4]	combination Emax [5]	combination Emax [6]	combination Emax [7]	combination Emax [8]	combination Emax [9]	combination Emax [10]	combination Emax [11]	combination Emax [12]	combination Emax [13]	combination Emax [14]	combination Emax [15]	combination Emax [16]	combination Emax [17]	combination Emax [18]	combination Emax [19]	combination Emax [20]
CC1(C)CCC(CN2CCN(c3ccc(C(=O)NS(=O)(=O)c4ccc(NCC5CCOCC5)c([N+](=O)[O-])c4)c(Oc4cnc5[nH]ccc5c4)c3)CC2)=C(c2ccc(Cl)cc2)C1 [Venetoclax] + CN(C)CCCOc1ccc(-c2ccc3ncc4c(c3c2)n(C2CCOCC2)c(=O)n4C)cn1 [AZD0156] (first compound max 1 µM, 7x7, partner max 1 µM)	0.334	0.25	0.168	0.736	0.164	0.17	0.118	0.289	0.491	0.685	0.491	0.487	0.142	0.158	0	0.289	0.278	0.196	0.395	0.359
CC1(C)CCC(CN2CCN(c3ccc(C(=O)NS(=O)(=O)c4ccc(NCC5CCOCC5)c([N+](=O)[O-])c4)c(Oc4cnc5[nH]ccc5c4)c3)CC2)=C(c2ccc(Cl)cc2)C1 [Venetoclax] + COc1cc(Nc2ncc3c(n2)-c2ccc(Cl)cc2C(c2c(F)cccc2OC)=NC3)ccc1C(=O)O [Alisertib] (first compound max 1 µM, 7x7, partner max 10 µM)	0.525	0.343	0.246	0.803	0.241	0.598	0.0718	0.423	0.709	0.688	0.765	0.795	0.89	0.349	0.436	0.463	0.995	0.387	0.412	0.57
CC1(C)CCC(CN2CCN(c3ccc(C(=O)NS(=O)(=O)c4ccc(NCC5CCOCC5)c([N+](=O)[O-])c4)c(Oc4cnc5[nH]ccc5c4)c3)CC2)=C(c2ccc(Cl)cc2)C1 [Venetoclax] + C[C@@H]1COCCN1C2=NC(=NC(=C2)C3(CC3)[S@](=N)(=O)C)C4=C5C=CNC5=NC=C4 [AZD6738] (first compound max 1 µM, 7x7, partner max 10 µM)	0.697	0.454	0.36	0.844	0.441	0.366	0.736	0.863	0.797	0.771	0.855	0.707	0.929	0.28	0.506	0.334	0.976	0.47	0.819	0.705
CC1(C)CCC(CN2CCN(c3ccc(C(=O)NS(=O)(=O)c4ccc(NCC5CCOCC5)c([N+](=O)[O-])c4)c(Oc4cnc5[nH]ccc5c4)c3)CC2)=C(c2ccc(Cl)cc2)C1 [Venetoclax] + C[C@@H](Nc1cc(F)cc(F)c1)c1cc(C(=O)N(C)C)cc2c(=O)cc(N3CCOCC3)oc12 [AZD8186] (first compound max 1 µM, 7x7, partner max 3 µM)	0.806	0.184	0.288	0.746	0.219	0.116	0.343	0.222	0.472	0.701	0.491	0.191	0.587	0.131	0.533	0.32	0.617	0.0907	0.532	0.29
CC1(C)CCC(CN2CCN(c3ccc(C(=O)NS(=O)(=O)c4ccc(NCC5CCOCC5)c([N+](=O)[O-])c4)c(Oc4cnc5[nH]ccc5c4)c3)CC2)=C(c2ccc(Cl)cc2)C1 [Venetoclax] + Cc1cc2ncnn2cc1Nc1ncc2c(n1)n(C1CCOCC1)c(=O)n2C [AZD7648] (first compound max 1 µM, 7x7, partner max 10 µM)	0.506	0.264	0.22	0.756	0.196	0.259	0.107	0.398	0.628	0.654	0.608	0.26	0.327	0.219	0.132	0.283	0.698	0.175	0.399	0.501
CC1(C)CCC(CN2CCN(c3ccc(C(=O)NS(=O)(=O)c4ccc(NCC5CCOCC5)c([N+](=O)[O-])c4)c(Oc4cnc5[nH]ccc5c4)c3)CC2)=C(c2ccc(Cl)cc2)C1 [Venetoclax] + Cn1cnc2c(F)c(Nc3ccc(Br)cc3Cl)c(C(=O)NOCCO)cc21 [Selumetinib] (first compound max 1 µM, 7x7, partner max 3 µM)	0.388	0.255	0.111	0.755	0.142	0.124	0.526	0.233	0.377	0.693	0.289	0.0867	0.319	0.234	0.403	0.289	0.207	0.575	0.591	0.2
